Where two headings read alike, the source gives them in different places.
What was measured:
GP of E. coli [1] = target: T1, GP of E. coli (Escherichia coli, UniProt P0AC86, E280D/L281V); assay: Substrate specificity of GP of E. coli (products by HPLC with amperometric detection); type: biochemical
T1 construct: His tag (pET-15b) (N); made in house; host or cells: E. coli BL21 (DE3) C43 transformed with pET15b-glgP (CECT 7071)
Method: The enzymatic reactions were carried out at 37° C. GP activities were measured in the sense of the analysed polyglucan degradation. […] The reaction was stopped after boiling for 2 minutes and centrifuging at 30,000 g for 20 minutes. The existing released G1P in the supernatant was determined by any of the following methods: • By spectrophotometry. 300 μL of mixture containing Hepes 50 mM pH 7, EDTA 1 mM, MgCl2 2 mM, KCl 15 mM, NAD^+ 0.6 mM, a unit of phosphoglucomutase and another of glucose-6-phosphate dehydrogenase of Leuconostoc mesenteroides, and 30 μL of supernatant resulting from step one were incubated for 20 minutes. The production of NADH was monitored at 340 nm using a Multiskan EX spectrophotometer (Labsystems). […] 40 μL of the supernatant from step 1 were subjected to high affinity liquid chromatography using a DX-500 Dionex system fitted to a Carbo-Pac PA10 column and amperometric detection.

GP of E. coli [2] = target: T1, GP of E. coli; type: biochemical
Method: The enzymatic reactions were carried out at 37° C. GP activities were measured in the sense of the analysed polyglucan degradation. In a first step, 50 μL of reaction mixture consisting of 50 mM HEPES (pH 7.5), 30 mM phosphate buffer (pH 7.5), polyglucan (equivalent to 10 mM glucose) and protein extract, were incubated for 15 minutes. The reaction was stopped after boiling for 2 minutes and centrifuging at 30,000 g for 20 minutes. The existing released G1P in the supernatant was determined by any of the following methods: • By spectrophotometry. 300 μL of mixture containing Hepes 50 mM pH 7, EDTA 1 mM, MgCl2 2 mM, KCl 15 mM, NAD^+ 0.6 mM, a unit of phosphoglucomutase and another of glucose-6-phosphate dehydrogenase of Leuconostoc mesenteroides, and 30 μL of supernatant resulting from step one were incubated for 20 minutes. The production of NADH was monitored at 340 nm using a Multiskan EX spectrophotometer (Labsystems). […] 40 μL of the supernatant from step 1 were subjected to high affinity liquid chromatography using a DX-500 Dionex system fitted to a Carbo-Pac PA10 column and amperometric detection.
The unit (U) is defined as the amount of enzyme that catalyzes the production of 1 μmol of product per minute.

[3] = glucan 5 mM glucose, 30 mM Pi, 3 U recombinant GP, 3 hours, 37° C.
[4] = effector 2 mM, GP activity, no effector = 100
[5] = effector 3 mM, GP activity, no effector = 100
[6] = cell without unit, glucan 5 mM glucose, 3 U recombinant GP, 3 hours, 37° C.

T1 sequence (P0AC86 other isoform, or with tags, fused parts or gaps E280D/L281V): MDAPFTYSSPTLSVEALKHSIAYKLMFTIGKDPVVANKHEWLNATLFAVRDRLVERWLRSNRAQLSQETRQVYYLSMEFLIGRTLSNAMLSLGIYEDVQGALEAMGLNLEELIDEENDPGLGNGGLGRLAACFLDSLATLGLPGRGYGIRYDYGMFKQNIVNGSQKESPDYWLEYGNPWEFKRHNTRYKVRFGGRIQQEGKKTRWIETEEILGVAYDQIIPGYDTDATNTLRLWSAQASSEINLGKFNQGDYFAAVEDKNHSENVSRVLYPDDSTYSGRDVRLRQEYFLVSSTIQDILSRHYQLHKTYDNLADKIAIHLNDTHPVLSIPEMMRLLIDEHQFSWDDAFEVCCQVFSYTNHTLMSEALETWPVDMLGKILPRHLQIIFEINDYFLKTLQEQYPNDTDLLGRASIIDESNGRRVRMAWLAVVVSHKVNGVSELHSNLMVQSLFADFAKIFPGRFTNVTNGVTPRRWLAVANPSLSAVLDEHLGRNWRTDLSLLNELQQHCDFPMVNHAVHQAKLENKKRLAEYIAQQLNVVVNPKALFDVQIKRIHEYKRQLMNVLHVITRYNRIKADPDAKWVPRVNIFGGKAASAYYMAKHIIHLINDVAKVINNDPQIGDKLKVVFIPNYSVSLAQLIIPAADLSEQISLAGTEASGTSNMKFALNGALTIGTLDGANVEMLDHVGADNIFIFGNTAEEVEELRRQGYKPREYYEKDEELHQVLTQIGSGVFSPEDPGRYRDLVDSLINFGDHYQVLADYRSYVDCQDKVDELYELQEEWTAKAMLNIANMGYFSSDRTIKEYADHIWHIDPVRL

With Glycogen the “Recognition as substrate by the GP of E. coli” value (“Recognition as substrate” below) (GP of E. coli [1]) was “recognizes”, the “Products: G1P” value (GP of E. coli [1]; [3]) was 0.5 mM and the “Products: Glycogen” value (GP of E. coli [1]; [3]) was 4.5 mM. For the same molecule, the “Products: Maltoheptose” value (GP of E. coli [1]; [3]) was “b.d.l”, the “Products: Maltohexose” value (GP of E. coli [1]; [3]) was “b.d.l” and the “Products: Maltopentaose” value (GP of E. coli [1]; [3]) was “b.d.l”. For the same molecule, the “Products: Maltose” value (GP of E. coli [1]; [3]) was “b.d.l”, the “Products: Maltotetraose” value (GP of E. coli [1]; [3]) was “b.d.l” and the “Products: Maltotriose” value (GP of E. coli [1]; [3]) was “b.d.l”.

O=C(COP(=O)(O)O)[C@@H](O)[C@H](O)[C@H](O)COP(=O)(O)O [Fructose-1,6-bisphosphate] was tested, and the “Inhibition of the GP of E. coli” value (GP of E. coli [2]) was “not to be inhibited”, the “Activity (U/mg protein)” value (GP of E. coli [2]; effector 2 mM) was 9.0 U/mg protein and the “% control” value (GP of E. coli [2]; [4]) was 113%.

With OC[C@H]1O[C@H](O[C@H]2[C@H](O)[C@@H](O)[C@@H](O[C@H]3[C@H](O)[C@@H](O)[C@@H](O[C@H]4[C@H](O)[C@@H](O)[C@@H](O[C@H]5[C@H](O)[C@@H](O)[C@@H](O[C@H]6[C@H](O)[C@@H](O)[C@@H](O[C@H]7[C@H](O)[C@@H](O)C(O)O[C@@H]7CO)O[C@@H]6CO)O[C@@H]5CO)O[C@@H]4CO)O[C@@H]3CO)O[C@@H]2CO)[C@H](O)[C@@H](O)[C@@H]1O (some centres unmarked) [Maltoheptose] the “Recognition as substrate” value (GP of E. coli [1]) was “recognizes”, the “Products: G1P” value (GP of E. coli [1]; [3]) was 2.1 mM and the “Products: Maltoheptose” value (GP of E. coli [1]; [3]) was 1.3 mM. For the same molecule, the “Products: Maltohexose” value (GP of E. coli [1]; [3]) was 1 mM, the “Products: Maltopentaose” value (GP of E. coli [1]; [3]) was 0.4 mM and the “Products: Maltose” value (GP of E. coli [1]; [3]) was “b.d.l”. The “Products: Maltotetraose” value (GP of E. coli [1]; [3]) was 0.2 mM and the “Products: Maltotriose” value (GP of E. coli [1]; [3]) was “b.d.l”.

For OC[C@H]1O[C@H](O[C@H]2[C@H](O)[C@@H](O)[C@@H](O[C@H]3[C@H](O)[C@@H](O)[C@@H](O[C@H]4[C@H](O)[C@@H](O)C(O)O[C@@H]4CO)O[C@@H]3CO)O[C@@H]2CO)[C@H](O)[C@@H](O)[C@@H]1O (some centres unmarked) [Maltotetraose], the “Recognition as substrate” value (GP of E. coli [1]) was “does not act on”, the “Products: G1P” value (GP of E. coli [1]; [3]) was “b.d.l” and the “Products: Maltose” value (GP of E. coli [1]; [3]) was “b.d.l”. The “Products: Maltotetraose” value (GP of E. coli [1]; [3]) was 5 mM and the “Products: Maltotriose” value (GP of E. coli [1]; [3]) was “b.d.l”.

In the case of starch, the “Recognition as substrate” value (GP of E. coli [1]) is reported as “recognizes”.

Nc1ncnc2c1ncn2[C@@H]1O[C@H](COP(=O)(O)OP(=O)(O)OP(=O)(O)O)[C@@H](O)[C@H]1O [ATP] was tested, and the “Inhibition of the GP of E. coli” value (GP of E. coli [2]) was “not to be inhibited”, the “Activity (U/mg protein)” value (GP of E. coli [2]; effector 2 mM) was 4.8 U/mg protein and the “% control” value (GP of E. coli [2]; [4]) was 60%.

O=C(CO)[C@@H](O)[C@H](O)[C@H](O)COP(=O)(O)O [Fructose-6-phosphate] was tested, and the “Inhibition of the GP of E. coli” value (GP of E. coli [2]) was “not to be inhibited”, the “Activity (U/mg protein)” value (GP of E. coli [2]; effector 2 mM) was 8.4 U/mg protein and the “% control” value (GP of E. coli [2]; [4]) was 105%.

With O=C[C@H](O)[C@@H](O)[C@H](O)[C@H](O)COP(=O)(O)O [Glucose-6-phosphate] the “Inhibition of the GP of E. coli” value (GP of E. coli [2]) was “not to be inhibited”, the “Activity (U/mg protein)” value (GP of E. coli [2]; effector 2 mM) was 7.6 U/mg protein and the “% control” value (GP of E. coli [2]; [4]) was 95%.

With Nc1ncnc2c1ncn2[C@@H]1O[C@@H]2COP(=O)(O)O[C@H]2[C@H]1O [Cyclic AMP] the “% control” value (GP of E. coli [2]) was 91% and the “Activity (U/mg protein)” value (GP of E. coli [2]) was 7.3 U/mg protein.

With Nc1ncnc2c1ncn2[C@@H]1O[C@H](COP(=O)(O)OP(=O)(O)O)[C@@H](O)[C@H]1O [ADP] the “Inhibition of the GP of E. coli” value (GP of E. coli [2]) was “not to be inhibited”, the “Activity (U/mg protein)” value (GP of E. coli [2]; effector 2 mM) was 7.0 U/mg protein and the “% control” value (GP of E. coli [2]; [4]) was 88%.

In the case of Maltotriose, the “Recognition as substrate” value (GP of E. coli [1]) is reported as “does not act on”, the “Products: G1P” value (GP of E. coli [1]; [3]) is reported as “b.d.l” and the “Products: Maltose” value (GP of E. coli [1]; [3]) is reported as “b.d.l”. For the same molecule, the “Products: Maltotriose” value (GP of E. coli [1]; [3]) was 5 mM.

In the case of OC[C@H]1O[C@H](O[C@H]2[C@H](O)[C@@H](O)C(O)O[C@@H]2CO)[C@H](O)[C@@H](O)[C@@H]1O (mixture of isomers) [Maltose], the “Recognition as substrate” value (GP of E. coli [1]) is reported as “does not act on”, the “Products: G1P” value (GP of E. coli [1]; [3]) is reported as “b.d.l” and the “Products: Maltose” value (GP of E. coli [1]; [3]) is reported as 5 mM.

In the case of O=P(O)(O)OP(=O)(O)O [Pyrophosphate], the “Activity (U/mg protein)” value (GP of E. coli [2]; effector 3 mM) is reported as 7.8 U/mg protein and the “% control” value (GP of E. coli [2]; [5]) is reported as 98%.

Maltopentaose was tested, and the “Recognition as substrate” value (GP of E. coli [1]) was “recognizes”, the “Products: Maltohexose” value (GP of E. coli [1]; [6]) was 0.2 and the “Products: G1P” value (GP of E. coli [1]; [3]) was 1.6 mM. The “Products: Maltoheptose” value (GP of E. coli [1]; [3]) was “b.d.l”, the “Products: Maltopentaose” value (GP of E. coli [1]; [3]) was 2.2 mM and the “Products: Maltose” value (GP of E. coli [1]; [3]) was “b.d.l”. The “Products: Maltotetraose” value (GP of E. coli [1]; [3]) was 1.0 mM and the “Products: Maltotriose” value (GP of E. coli [1]; [3]) was “b.d.l”.

With OC[C@H]1O[C@H](O[C@H]2[C@H](O)[C@@H](O)[C@@H](O[C@H]3[C@H](O)[C@@H](O)[C@@H](O[C@H]4[C@H](O)[C@@H](O)[C@@H](O[C@H]5[C@H](O)[C@@H](O)[C@@H](O[C@H]6[C@H](O)[C@@H](O)C(O)O[C@@H]6CO)O[C@@H]5CO)O[C@@H]4CO)O[C@@H]3CO)O[C@@H]2CO)[C@H](O)[C@@H](O)[C@@H]1O (some centres unmarked) [Maltohexose] the “Recognition as substrate” value (GP of E. coli [1]) was “recognizes”, the “Products: Maltoheptose” value (GP of E. coli [1]; [6]) was 0.1 and the “Products: G1P” value (GP of E. coli [1]; [3]) was 1.7 mM. The “Products: Maltohexose” value (GP of E. coli [1]; [3]) was 2.1 mM, the “Products: Maltopentaose” value (GP of E. coli [1]; [3]) was 0.5 mM and the “Products: Maltose” value (GP of E. coli [1]; [3]) was “b.d.l”. The “Products: Maltotetraose” value (GP of E. coli [1]; [3]) was 0.6 mM and the “Products: Maltotriose” value (GP of E. coli [1]; [3]) was “b.d.l”.

In the case of O=C(O)[C@H](O)COP(=O)(O)O [3-phosphoglycerate], the “Inhibition of the GP of E. coli” value (GP of E. coli [2]) is reported as “not to be inhibited”, the “Activity (U/mg protein)” value (GP of E. coli [2]; effector 2 mM) is reported as 8.9 U/mg protein and the “% control” value (GP of E. coli [2]; [4]) is reported as 111%.

Nc1ncnc2c1ncn2[C@@H]1O[C@H](COP(=O)(O)OP(=O)(O)O[C@H]2O[C@H](CO)[C@@H](O)[C@H](O)[C@H]2O)[C@@H](O)[C@H]1O [ADPG, ADPglucose] was tested, and the “Inhibition of the GP of E. coli” value (GP of E. coli [2]) was “not to be inhibited”, the “Activity (U/mg protein)” value (GP of E. coli [2]; effector 2 mM) was 8.3 U/mg protein and the “% control” value (GP of E. coli [2]; [4]) was 104%.

In the case of Nc1ncnc2c1ncn2[C@@H]1O[C@H](COP(=O)(O)O)[C@@H](O)[C@H]1O [AMP], the “Inhibition of the GP of E. coli” value (GP of E. coli [2]) is reported as “not to be inhibited”, the “Activity (U/mg protein)” value (GP of E. coli [2]; effector 3 mM) is reported as 7.6 U/mg protein and the “% control” value (GP of E. coli [2]; [5]) is reported as 95%.
